{"source": "patent US20060258007A1", "about": "“Regulated vectors for selection of cells exhibiting desired phenotypes” (priority 2005, published 2006)", "test_system": "cells expressing the HSV-TK gene product", "test": "Negative selection of pIRES-MAB-TK cultures with ganciclovir", "type": "cell-based, Chinese Hamster", "conditions": "5 days in the presence of ganciclovir, then an additional 10 days in growth media alone", "experimental": "For example, pIRES-MAB-TK cultures are grown for 5 days in the presence of the prodrug ganciclovir (Sigma), which kills cells expressing the HSV-TK gene product. After 5 days of negative selection, cells are grown for an additional 10 days in growth media alone at which time greater than 95% of cells die off. Resistant clones are then picked and expanded in 10 cm petri dishes. Cells are grown for 3 weeks, after which time a portion is reanalyzed for recombinant protein expression, for example, by western blot, RT-PCR, and/or PCR. DNA is analyzed for the presence of the pIRES-pro-TK or pIRES-MAB-TK vector by PCR using any set of primers that can specifically detect the presence or absence of the pIRES vector, for example, according to methods as previously described in Grasso et al. (1998).", "data": [{"compound": "Nc1nc(O)c2ncn(COC(CO)CO)c2n1", "note": "[ganciclovir]", "values": [{"measurement": "cells die off", "value": "greater than 95%"}]}]}
